The results in this text go back to patent US7868026B2, “Therapeutic compounds” (Pfizer Inc., priority 2005, dated 2011).

Common to all, as to type: biochemical
In assay [1] the target is T1, CYP3A4 (Homo sapiens, UniProt P08684). Briefly: Determination of compound Kiapp against recombinant CYP3A4 enzyme (BFC fluorescent substrate). In a few lines:
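Kiapp derived from initial velocities over the first 5 min of BFC (5 uM) oxidation, using Morrison's tight-binding equation for non-partial and Szedlacsek's for partial inhibitors. Inhibitor first pre-incubated ≥30 min with CYP3A4 (5.5 or 8 nM, ±b5) in pH 7.0 phosphate/TCEP/2% DMF at room temperature; 200 uM NADPH initiated.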

The target in assay [2] is T1, CYP3A4. Briefly: Determination of IC50 against CYP3A4 by measurement of inhibition of testosterone metabolism (human liver microsomes, 6-β-OH-testosterone by LC-MS/MS). More on the design: 0.1 mg/mL human liver microsomes. The settings on record: read-out: IC50 (Testo.). The procedure, abridged:
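6-β-OH-testosterone formation was read by LC-MS/MS (MRM, internal standard, standard curve) after eight minutes. Reaction contained testosterone 25 μM, NADPH 1 mM and microsomal protein 0.1 mg/mL in pH 7.4 potassium phosphate (100 mM).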

Assay [3] addresses T1, CYP3A4. Briefly: Determination of IC50 against CYP3A4 by measurement of inhibition of midazolam metabolism (human liver microsomes, 1-hydroxymidazolam by LC-MS/MS). The arrangement: 0.1 mg/mL human liver microsomes. The settings on record: 2 μM midazolam, 0.1 mg/mL human liver microsomes. In a few lines:
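Human liver microsomes (0.1 mg/mL) incubated 8 min with 2 μM midazolam and 1 mM NADPH in 100 mM potassium phosphate, pH 7.4. 1-Hydroxymidazolam quantified by LC-MS/MS (MRM) as peak area ratio to internal standard against a metabolite standard curve.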
A general note: Microsomes from liver hold many membrane-bound enzymes, among them those of drug oxidation.

[4] abbreviates: Baculo. enzyme preparation, read-out: Kiapp (BFC, Baculo.).
Where [5] appears, read: Super. enzyme preparation, read-out: Kiapp (BFC, Super.).

Structures are written as SMILES. Read-outs that look alike come from different tables or passages of the source.

T1 sequence (P08684 whole entry): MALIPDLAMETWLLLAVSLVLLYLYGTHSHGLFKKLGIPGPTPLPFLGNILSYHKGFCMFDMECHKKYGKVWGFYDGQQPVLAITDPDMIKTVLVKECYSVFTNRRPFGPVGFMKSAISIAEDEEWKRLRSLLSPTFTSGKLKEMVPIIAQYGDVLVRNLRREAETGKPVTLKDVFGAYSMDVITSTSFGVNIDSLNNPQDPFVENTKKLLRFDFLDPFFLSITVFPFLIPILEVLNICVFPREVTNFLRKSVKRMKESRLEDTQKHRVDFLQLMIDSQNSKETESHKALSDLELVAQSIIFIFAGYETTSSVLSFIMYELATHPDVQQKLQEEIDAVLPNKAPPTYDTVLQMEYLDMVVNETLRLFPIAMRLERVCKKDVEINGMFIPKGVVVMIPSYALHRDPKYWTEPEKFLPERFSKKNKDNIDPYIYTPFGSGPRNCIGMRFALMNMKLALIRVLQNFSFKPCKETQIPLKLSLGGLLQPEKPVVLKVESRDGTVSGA

Broadly, the IC50 is the concentration at which inhibition is half-maximal. In the case of `CN(Cc1ccc(F)c(F)c1)C(=O)c1ccccc1S(=O)(=O)Nc1cccnc1` [Example 284, N-(3,4-difluorobenzyl)-N-methyl-2-[(pyridin-3-ylamino)sulfonyl]benzamide], the results for the Ki at CYP3A4 [1] (setting [4]) and on CYP3A4 [1] (setting [5]) were 99.8 nM and 14.2 nM, respectively. Moreover, the IC50 came to 49 nM on CYP3A4 [2] and 15 nM at CYP3A4 [3].

As to `CCOc1cncc(NS(=O)(=O)c2ccccc2C(=O)NCc2ccc(Cl)c(Cl)c2)c1` [Example 291, N-(3,4-dichlorobenzyl)-2-{[(5-ethoxypyridin-3-yl)amino]sulfonyl}benzamide], the figures for the Ki on CYP3A4 [1] (setting [4]) and on CYP3A4 [1] (setting [5]) were 4.5 nM and 2.98 nM, respectively. Also, the half-inhibitory concentration (IC50) at CYP3A4 [2] was 27 nM; on CYP3A4 [3] it was 21 nM.

Consider `CC1CC(C)CN(C(=O)c2ccccc2S(=O)(=O)N(C)c2cccnc2)C1` (centres unmarked) [Example 358, 2-[(3,5-dimethylpiperidin-1-yl)carbonyl]-N-methyl-N-pyridin-3-ylbenzenesulfonamide], for which the results for the Ki on CYP3A4 [1] (setting [4]) and on CYP3A4 [1] (setting [5]) were 592 nM and 137 nM, respectively. Also, the results for the IC50 at CYP3A4 [2] and at CYP3A4 [3] were 100 nM and 68 nM, respectively.

Take `CCOc1cncc(NS(=O)(=O)c2ccccc2C(=O)NCCc2ccccc2C)c1` [Example 292, 2-{[(5-ethoxypyridin-3-yl)amino]sulfonyl}-N-[2-(2-methylphenyl)ethyl]benzamide]: the Ki on CYP3A4 [1] (setting [4]) worked out at 1.6 nM; at CYP3A4 [1] (setting [5]), 0.618 nM. Also, the values for the IC50 at CYP3A4 [2] and on CYP3A4 [3] were 16 nM and less than 3 nM, respectively.

For `COc1cncc(NS(=O)(=O)c2ccccc2C(=O)N2CCC(OC)CC2)c1` [Example 366, 2-[(4-methoxypiperidin-1-yl)carbonyl]-N-(5-methoxypyridin-3-yl)benzenesulfonamide], the Ki at CYP3A4 [1] (setting [4]) came to 553 nM; on CYP3A4 [1] (setting [5]) it was 65.1 nM. The IC50 on CYP3A4 [2] was more than 750 nM; on CYP3A4 [3], 253 nM.

For the molecule `CCCCN(C)C(=O)c1ccccc1S(=O)(=O)Nc1cnccc1OCC` [Example 274, N-butyl-2-{[(4-ethoxypyridin-3-yl)amino]sulfonyl}-N-methylbenzamide], the results for the Ki on CYP3A4 [1] (setting [4]) and on CYP3A4 [1] (setting [5]) were 70.1 nM and 8.85 nM, respectively. The figures for the IC50 at CYP3A4 [2] and on CYP3A4 [3] were 46 nM and 25 nM, respectively.

In the case of `CN(c1cccnc1)S(=O)(=O)c1ccccc1C(=O)N1CCCC(C)(C)C1` [Example 345, 2-[(3,3-dimethylpiperidin-1-yl)carbonyl]-N-methyl-N-pyridin-3-ylbenzenesulfonamide], the values for the Ki at CYP3A4 [1] (setting [4]) and at CYP3A4 [1] (setting [5]) were 409 nM and 135 nM, respectively. For the same molecule, the IC50 came to 48 nM on CYP3A4 [2] and 75 nM at CYP3A4 [3].

With `COc1cncc(NS(=O)(=O)c2ccc(OC3CCNCC3)cc2C(=O)N(C)C(C)C)c1` [Example 243, N-isopropyl-2-{[(5-methoxypyridin-3-yl)amino]sulfonyl}-N-methyl-5-(piperidin-4-yloxy)benzamide], the figures for the Ki at CYP3A4 [1] (setting [4]) and on CYP3A4 [1] (setting [5]) were 28.4 nM and 85.8 nM, respectively. Moreover, the IC50 was 264 nM at CYP3A4 [2] and 69 nM at CYP3A4 [3].

Regarding `COc1cncc(NS(=O)(=O)c2ccccc2C(=O)NCCO)c1` [Example 176, N-(2-hydroxyethyl)-2-{[(5-methoxypyridin-3-yl)amino]sulfonyl}benzamide], the Ki was more than 1000 nM on CYP3A4 [1] (setting [4]) and 625 nM at CYP3A4 [1] (setting [5]). The figures for the half-inhibitory concentration (IC50) on CYP3A4 [2] and on CYP3A4 [3] were more than 750 nM and 406 nM, respectively.

As for `Cc1cncc(NS(=O)(=O)c2ccccc2C(=O)NC(C)C(C)C)c1` (centres unmarked) [Example 317, N-(1,2-dimethylpropyl)2{[(5-methylpyridin-3-yl)amino]sulfonyl}benzamide], the values for the Ki on CYP3A4 [1] (setting [4]) and on CYP3A4 [1] (setting [5]) were 144 nM and 51.6 nM, respectively. Besides, the half-maximal inhibitory concentration (IC50) at CYP3A4 [2] was determined as 19 nM; at CYP3A4 [3], 15 nM.

As for `O=C(NCCCc1ccccn1)c1ccccc1S(=O)(=O)Nc1cccnc1` [Example 69, 2-[(pyridin-3-ylamino)sulfonyl]-N-(3-pyridin-2-ylpropyl)benzamide], at CYP3A4 [1] (setting [4]), the Ki was more than 1000 nM. Further, the IC50 at CYP3A4 [2] came out at 179 nM; at CYP3A4 [3], 105 nM.

For the molecule `COc1cccc(CCNC(=O)c2ccccc2S(=O)(=O)Nc2cccnc2)c1` [Example 60, N-[2-(3-methoxyphenyl)ethyl]-2-[(pyridin-3-ylamino)sulfonyl]benzamide], the Ki at CYP3A4 [1] (setting [4]) came out at 151 nM. In addition, the concentration for half-maximal inhibition (IC50) at CYP3A4 [2] was determined as 24 nM; on CYP3A4 [3], 17 nM.

`CCCCNC(=O)c1ccccc1S(=O)(=O)Nc1cncc(OCC)c1` [Example 306, N-butyl-2-{[(5-ethoxypyridin-3-yl)amino]sulfonyl}benzamide]: the Ki was found to be 77.8 nM at CYP3A4 [1] (setting [4]) and 24.9 nM on CYP3A4 [1] (setting [5]). In addition, the IC50 at CYP3A4 [2] turned out to be 48 nM; at CYP3A4 [3], 32 nM.

On to `CC(C)(C)OC(=O)N1CCC2(CC1)CN(C(=O)c1ccccc1S(=O)(=O)Nc1cccnc1)C2` [Example 11, tert-butyl 2-{2-[(pyridin-3-ylamino)sulfonyl]benzoyl}-2,7-diazaspiro[3.5]nonane-7-carboxylate], for which the Ki is more than 1000 nM on CYP3A4 [1] (setting [4]) and 563 nM on CYP3A4 [1] (setting [5]). Moreover, the half-maximal inhibitory concentration (IC50) at CYP3A4 [2] and at CYP3A4 [3] was more than 750 nM throughout.

Regarding `CC(C)(CN1CCOCC1)NC(=O)c1ccccc1S(=O)(=O)Nc1cccnc1` [Example 33, N-(1,1-dimethyl-2-morpholin-4-ylethyl)-2-[(pyridin-3-ylamino)sulfonyl]benzamide], the Ki at CYP3A4 [1] (setting [4]) is more than 1000 nM. Moreover, the IC50 on CYP3A4 [2] came to 473 nM; on CYP3A4 [3], 111 nM.

For the molecule `O=C(NCCc1ccccc1)c1ccccc1S(=O)(=O)Nc1cccnc1` [Example 77, N-(2-phenylethyl)-2-[(pyridin-3-ylamino)sulfonyl]benzamide], the figures for the Ki on CYP3A4 [1] (setting [4]) and on CYP3A4 [1] (setting [5]) were 131 nM and 5.6 nM, respectively. The half-maximal inhibitory concentration (IC50) at CYP3A4 [2] was found to be 192 nM; on CYP3A4 [3], 23 nM.

As to `COc1cncc(NS(=O)(=O)c2ccccc2C(=O)NCCC2CCCN2C)c1` (centres unmarked) [Example 387, 2-{[(5-methoxypyridin-3-yl)amino]sulfonyl}N[2-(1-methylpyrrolidin-2-yl)ethyl]benzamide], the Ki is more than 1000 nM on CYP3A4 [1] (setting [4]) and 224 nM at CYP3A4 [1] (setting [5]). In addition, the IC50 on CYP3A4 [2] and on CYP3A4 [3] was more than 750 nM in each case.

With `Cc1ccncc1NS(=O)(=O)c1ccccc1C(=O)NCc1ccc(S(C)(=O)=O)cc1` [Example 169, 2-{[(4-methylpyridin-3-yl)amino]sulfonyl}-N-[4-(methylsulfonyl)benzyl]benzamide], the values for the Ki on CYP3A4 [1] (setting [4]) and on CYP3A4 [1] (setting [5]) were more than 1000 nM and 187 nM, respectively. Besides, the concentration for half-maximal inhibition (IC50) was 395 nM at CYP3A4 [2] and 139 nM on CYP3A4 [3].

Take `COc1cncc(NS(=O)(=O)c2ccccc2C(=O)NC(C(C)C)C(C)C)c1` [Example 211, N-(1-isopropyl-2-methylpropyl)-2-{[(5-methoxypyridin-3-yl)amino]sulfonyl}benzamide]: the Ki at CYP3A4 [1] (setting [4]) came out at 33.6 nM; at CYP3A4 [1] (setting [5]) it was 7.9 nM. Moreover, the IC50 was determined as 19 nM on CYP3A4 [2] and 4 nM at CYP3A4 [3].

On to `CCN(Cc1ccccc1)C(=O)c1ccccc1S(=O)(=O)Nc1cccnc1` [Example 78, N-benzyl-N-ethyl-2-[(pyridin-3-ylamino)sulfonyl]benzamide], for which the results for the Ki at CYP3A4 [1] (setting [4]) and on CYP3A4 [1] (setting [5]) were 158 nM and 13.8 nM, respectively. Further, the half-maximal inhibitory concentration (IC50) on CYP3A4 [2] was more than 750 nM; at CYP3A4 [3] it was 22 nM.

As for `COc1cncc(NS(=O)(=O)c2ccccc2C(=O)NC(C)CC(C)C)c1` (centres unmarked) [Example 204, N-(1,3-dimethylbutyl)-2-{[(5-methoxypyridin-3-yl)amino]sulfonyl}benzamide], the Ki was 52.5 nM at CYP3A4 [1] (setting [4]) and 12.6 nM on CYP3A4 [1] (setting [5]). In addition, the IC50 on CYP3A4 [2] was 12 nM; at CYP3A4 [3], less than 3 nM.

`O=C(NCCOc1ccccc1)c1ccccc1S(=O)(=O)Nc1cccnc1` [Example 56, N-(2-phenoxyethyl)-2-[(pyridin-3-ylamino)sulfonyl]benzamide]: the Ki on CYP3A4 [1] (setting [4]) came to 340 nM; at CYP3A4 [1] (setting [5]), 22.4 nM. In addition, the half-inhibitory concentration (IC50) came to 62 nM at CYP3A4 [2] and 48.9 nM on CYP3A4 [3].

On to `COc1cncc(NS(=O)(=O)c2ccccc2C(=O)N[C@@H](C)C(C)(C)C)c1` [Example 210, 2-{[(5-methoxypyridin-3-yl)amino]sulfonyl}-N-[(1S)-122-trimethylpropyl]benzamide], for which the values for the Ki at CYP3A4 [1] (setting [4]) and on CYP3A4 [1] (setting [5]) were 286 nM and 39.6 nM, respectively. The half-maximal inhibitory concentration (IC50) was determined as 49 nM on CYP3A4 [2] and 10 nM at CYP3A4 [3].

As for `COc1cncc(NS(=O)(=O)c2ccccc2C(=O)NCCc2ccccc2OC)c1` [Example 263, N-[2-(2-methoxyphenyl)ethyl]-2-{[(5-methoxypyridin-3-yl)amino]sulfonyl}benzamide], the Ki at CYP3A4 [1] (setting [4]) worked out at 54.7 nM; on CYP3A4 [1] (setting [5]), 5.4 nM. The concentration for half-maximal inhibition (IC50) on CYP3A4 [2] was 11 nM; on CYP3A4 [3] it was 9 nM.

For `COc1cncc(NS(=O)(=O)c2ccccc2C(=O)NCCN2CCCCC2)c1` [Example 385, 2-{[(5-methoxypyridin-3-yl)amino]sulfonyl}N-(2-piperidin-1-ylethyl)benzamide], the values for the Ki at CYP3A4 [1] (setting [4]) and at CYP3A4 [1] (setting [5]) were more than 1000 nM and 216 nM, respectively. The half-maximal inhibitory concentration (IC50) on CYP3A4 [2] and on CYP3A4 [3] was more than 750 nM throughout.

Take `CCOc1cncc(NS(=O)(=O)c2ccccc2C(=O)NC(C)(C)C)c1` [Example 294, N-(tert-butyl)-2-{[(5-ethoxy-pyridin-3-yl)amino]sulfonyl} benzamide]: the Ki at CYP3A4 [1] (setting [4]) worked out at 135 nM; on CYP3A4 [1] (setting [5]), 32.1 nM. For the same molecule, the concentration for half-maximal inhibition (IC50) worked out at 57 nM at CYP3A4 [2] and 24 nM on CYP3A4 [3].
